{"source": "patent US7659270B2", "about": "“Hepatitis C virus inhibitors” (Bristol-Myers Squibb Company, priority 2006, dated 2010)", "tested_on": "HCV 1b-377-neo replicon cells", "assay": "HCV replicon assay (HCV 1b-377-neo replicon cells)", "assay_type": "cell-based, Hepatitis C virus genotype 1b", "details": "read-out: EC50 range against HCV 1b (Range)", "description": "An HCV Replion assay was utilized in the present disclosure, and was prepared, conducted and validated as described in commonly owned PCT/US2006/022197 and in O'Boyle et. al. Antimicrob Agents Chemother. April 2005;49(4): 1346-53.\nHCV 1b-377-neo replicon cells were used to test the currently described compound series as well as cells resistant to compound A due to a Y2065H mutation in NS5A (described in application PCT/US2006/022197). The compounds tested were determined to have more than 10-fold less inhibitory activity on cells resistant to compound A than wild-type cells indicating a related mechanism of action between the two compound series. Thus, the compounds of the present disclosure can be effective to inhibit the function of the HCV NS5A protein and are understood to be as effective in combinations as previously described in application PCT/US2006/022197 and commonly owned WO/04014852. Further, the compounds of the present disclosure can be effective against the HCV 1b genotype. It should also be understood that the compounds of the present disclosure can inhibit multiple genotypes of HCV. […] In one embodiment compounds of the present disclosure are active against the 1a, 1b, 2a, 2b, 3a, 4a, and 5a genotypes.", "note": "Like-named read-outs stand apart in the source and are kept apart here.", "data": [{"smiles": "CN(C)[C@@H](C(=O)N1CCC[C@H]1c1ncc(-c2ccc(-c3ncc(-c4cnc([C@@H]5CCCN5C(=O)[C@@H](c5ccccc5)N(C)C)[nH]4)cn3)cc2)[nH]1)c1ccccc1", "note": "[Example 152j-1, (1R)-2-((2S)-2-(5-(2-(4-(2-((2S)-1-((2R)-2-(dimethylamino)-2-phenylacetyl)-2-pyrrolidinyl)-1H-imidazol-5-yl)phenyl)-5-pyrimidinyl)-1H-imidazol-2-yl)-1-pyrrolidinyl)-N,N-dimethyl-2-oxo-1-phenylethanamine]", "values": [{"measurement": "EC50", "setting": "Hepatitis C virus", "value": "1 to 99", "unit": "nM"}]}, {"smiles": "COC(=O)N[C@@H](C(=O)N1CCC[C@H]1c1ncc(-c2ccc(-c3ccc(-c4cnc([C@@H]5CCCN5C(=O)Cc5cccnc5)[nH]4)cc3C)cc2)[nH]1)c1ccccc1", "note": "[Example 127, methyl ((1R)-2-((2S)-2-(5-(2′-methyl-4′-(2-((2S)-1-(3-pyridinylacetyl)-2-pyrrolidinyl)-1H-imidazol-5-yl)-4-biphenylyl)-1H-imidazol-2-yl)-1-pyrrolidinyl)-2-oxo-1-phenylethyl)carbamate]", "values": [{"measurement": "EC50", "setting": "Hepatitis C virus", "value": "0.01 to 0.999", "unit": "nM"}]}, {"smiles": "CNCC(=O)N1CCC[C@H]1c1ncc(-c2ccc(-c3ccc(-c4cnc([C@@H]5CCCN5C(=O)[C@@H](NC(=O)OC)C(C)C)[nH]4)cc3)cc2)[nH]1", "note": "[LS20]", "values": [{"measurement": "EC50", "value": "0.01 to 0.999", "unit": "nM"}]}, {"smiles": "C[C@H](NC(=O)[C@@H](c1ccccc1)N(C)C)c1ncc(-c2cnc(-c3ccc(-c4cnc([C@@H]5CCCN5C(=O)[C@@H](c5ccccc5)N(C)C)[nH]4)cc3)cn2)[nH]1", "note": "[Example 152j-18, (2R)-2-(dimethylamino)-N-((1S)-1-(5-(5-(4-(2-((2S)-1-((2R)-2-(dimethylamino)-2-phenylacetyl)-2-pyrrolidinyl)-1H-imidazol-5-yl)phenyl)-2-pyrazinyl)-1H-imidazol-2-yl)ethyl)-2-phenylacetamide]", "values": [{"measurement": "EC50", "setting": "Hepatitis C virus", "value": "0.01 to 0.999", "unit": "nM"}]}, {"smiles": "COC(=O)N[C@@H](C(=O)N[C@@H](C)c1ncc(-c2ccc(-c3ncc(-c4cnc([C@@H]5CCCN5C(=O)[C@H](NC(=O)OC)c5ccccc5)[nH]4)cn3)cc2)[nH]1)c1ccccc1", "note": "[Example 152j-15, methyl ((1R)-2-((2S)-2-(5-(2-(4-(2-((1S)-1-(((2R)-2-((methoxycarbonyl)a-mino)-2-phenyl-acetyl)amino)eth-yl)-1H-imidazol-5-yl)phenyl)-5-pyrimidinyl)-1H-imidazol-2-yl)-1-pyrrolidinyl)-2-oxo-1-phenylethyl)carbamate]", "values": [{"measurement": "EC50", "setting": "Hepatitis C virus", "value": "0.01 to 0.999", "unit": "nM"}]}, {"smiles": "COC(=O)N[C@@H](C(=O)N1CCC[C@H]1c1ncc(-c2cnc(-c3cnc(-c4cnc([C@@H]5CCCN5C(=O)[C@H](NC(=O)OC)c5ccccc5)[nH]4)cn3)cn2)[nH]1)c1ccccc1", "note": "[Example 153c-6, dimethyl (2,2′-bipyrazine-5,5′-diylbis(1H-imi-dazole-5,2-diyl (2S)-2,1-pyrrolidine-diyl((1R)-2-oxo-1-phe-nyl-2,1-ethane-diyl)))biscarba-mate]", "values": [{"measurement": "EC50", "setting": "Hepatitis C virus", "value": "1 to 99", "unit": "nM"}]}, {"smiles": "COC(=O)N[C@@H](C(=O)N1CCC[C@H]1c1ncc(-c2ccc(-c3ccc(-c4cnc([C@@H]5CCCN5C(=O)Cc5cccnc5)[nH]4)cn3)cc2)[nH]1)c1ccccc1", "note": "[Example 143, methyl ((1R)-2-oxo-1-phenyl-2-((2S)-2-(5-(4-(5-(2-((2S)-1-(3-pyridinylacetyl)-2-pyrrolidinyl)-1H-imidazol-5-yl)-2-pyridinyl)phenyl)-1H-imidazol-2-yl)-1-pyrrolidinyl)ethyl)carbamate]", "values": [{"measurement": "EC50", "setting": "Hepatitis C virus", "value": "0.01 to 0.999", "unit": "nM"}]}, {"smiles": "COC(=O)N[C@@H](C(=O)N1CCC[C@H]1c1ncc(-c2ccc(-c3ccc(-c4cnc([C@@H]5CCCN5C(=O)[C@H](NC(=O)OC)c5ccccc5)[nH]4)nn3)cc2)[nH]1)c1ccccc1", "note": "[Example 152j-10, methyl ((1R)-2-((2S)-2-(5-(6-(4-(2-((2S)-1-((2R)-2-((methoxycarbonyl)a-mino)-2-phenylacetyl)-2-pyrrolidinyl)-1H-imidazol-5-yl)phenyl)-3-pyridazinyl)-1H-imidazol-2-yl)-1-pyrrolidinyl)-2-oxo-1-phenylethyl) carba-mate]", "values": [{"measurement": "EC50", "setting": "Hepatitis C virus", "value": "1 to 99", "unit": "nM"}]}, {"smiles": "COC(=O)N[C@@H](C(=O)N[C@@H](C)c1ncc(-c2ccc(-c3ccc(-c4cnc([C@H](C)NC(=O)[C@H](NC(=O)OC)c5ccccc5)[nH]4)cn3)cc2)[nH]1)c1ccccc1", "note": "[Example 152j-23]", "values": [{"measurement": "EC50", "setting": "Hepatitis C virus", "value": "0.01 to 0.999", "unit": "nM"}]}, {"smiles": "CN(C)[C@@H](C(=O)N1CCC[C@H]1c1ncc(-c2cnc(-c3ncc(-c4cnc([C@@H]5CCCN5C(=O)[C@@H](c5ccccc5)N(C)C)[nH]4)cn3)nc2)[nH]1)c1ccccc1", "note": "[Example 153c-3, (1R,1′R)-2,2′-(2,2′-bipyrimi-dine-5,5′-diylbis(1H-imidazole-5,2-diyl (2S)-2,1-pyrrolidine-diyl))bis(N, N-dimeth-yl-2-oxo-1-phenyl-ethanamine)]", "values": [{"measurement": "EC50", "setting": "Hepatitis C virus", "value": "1000 to 10000", "unit": "nM"}]}, {"smiles": "COC(=O)N[C@@H](C(=O)N1CCC[C@H]1c1ncc(-c2ccc(-c3ccc(-c4cnc([C@@H]5CCCN5C(=O)[C@H](NC(=O)OC)c5ccccc5)[nH]4)nc3)cc2)[nH]1)c1ccccc1", "note": "[Example 147, methyl((1R)-2-((2S)-2-(5-(5-(4-(2-((2S)-1-((2R)-2-((methoxycarbonyl)amino)-2-phenylacetyl)-2-pyrrolidinyl)-1H-imidazol-5-yl)phenyl)-2-pyridinyl)-1H-imidazol-2-yl)-1-pyrrolidinyl)-2-oxo-1-phenylethyl)carbamate]", "values": [{"measurement": "EC50", "setting": "Hepatitis C virus", "value": "0.01 to 0.999", "unit": "nM"}]}, {"smiles": "COC(=O)N[C@@H](C(=O)N[C@@H](C)c1ncc(-c2ccc(-c3cnc(-c4cnc([C@@H]5CCCN5C(=O)[C@H](NC(=O)OC)c5ccccc5)[nH]4)cn3)cc2)[nH]1)c1ccccc1", "note": "[Example 152j-28]", "values": [{"measurement": "EC50", "setting": "Hepatitis C virus", "value": "0.01 to 0.999", "unit": "nM"}]}, {"smiles": "COC(=O)N[C@@H](C(=O)N1CCC[C@H]1c1ncc(-c2ccc(-c3ccc(-c4cnc([C@@H]5CCCN5C(=O)C5CCN(C)CC5)[nH]4)cn3)cc2)[nH]1)c1ccccc1", "note": "[Example 142, methyl ((1R)-2-((2S)-2-(5-(4-(5-(2-((2S)-1-((1-methyl-4-piperidinyl)carbonyl)-2-pyrrolidinyl)-1H-imidazol-5-yl)-2-pyridinyl)phenyl)-1H-imidazol-2-yl)-1-pyrrolidinyl)-2-oxo-1-phenylethyl)carbamate]", "values": [{"measurement": "EC50", "setting": "Hepatitis C virus", "value": "1 to 99", "unit": "nM"}]}, {"smiles": "C[C@@H](c1ncc(-c2ccc(-c3ccc(-c4cnc([C@@H]5CCCN5C(=O)[C@@H](c5ccccc5)N(C)C)[nH]4)cc3)cc2)[nH]1)N(C)C(=O)[C@@H](c1ccccc1)N(C)C", "note": "[Example 24-18-5, (2R)-2-(dimethyl-amino)-N-((1S)-1-(5-(4′-(2-((2S)-1-((2R)-2-(dimethyl-amino)-2-phenyl-acetyl)-2-pyrroli-dinyl)-1H-imida-zol-5-yl)-4-biphenyl-yl)-1H-imidazol-2-yl)ethyl)-N-methyl-2-phenyl-acetamide]", "values": [{"measurement": "EC50", "setting": "Hepatitis C virus", "value": "0.01 to 0.999", "unit": "nM"}]}, {"smiles": "Cc1cc(-c2cnc([C@@H]3CCCN3C(=O)[C@@H](c3ccccc3)N(C)C)[nH]2)ccc1-c1ccc(-c2cnc([C@@H]3CCCN3C(=O)[C@@H](c3ccccc3)N(C)C)[nH]2)cn1", "note": "[Example 136, (1R)-2-((2S)-2-(5-(6-(4-(2-((2S)-1-((2R)-2-(dimethylamino)-2-phenylacetyl)-2-pyrrolidinyl)-1H-imidazol-5-yl)-2-methylphenyl)-3-pyridinyl)-1H-imidazol-2-yl)-1-pyrrolidinyl)-N,N-dimethyl-2-oxo-1-phenylethanamine]", "values": [{"measurement": "EC50", "setting": "Hepatitis C virus", "value": "0.01 to 0.999", "unit": "nM"}]}, {"smiles": "COC(=O)N[C@@H](C(=O)N1CCC[C@H]1c1ncc(-c2ccc(-c3ccc(-c4cnc([C@@H]5CCCN5C(=O)[C@H](NC(=O)OC)c5ccccc5)[nH]4)cn3)cc2)[nH]1)c1ccccc1", "note": "[Example 134, methyl ((1R)-2-((2S)-2-(5-(6-(4-(2-((2S)-1-((2R)-2-((methoxycarbonyl)amino)-2-phenylacetyl)-2-pyrrolidinyl)-1H-imidazol-5-yl)phenyl)-3-pyridinyl)-1H-imidazol-2-yl)-1-pyrrolidinyl)-2-oxo-1-phenylethyl)carbamate]", "values": [{"measurement": "EC50", "setting": "Hepatitis C virus", "value": "0.01 to 0.999", "unit": "nM"}]}, {"smiles": "COC(=O)N[C@H](C(=O)N1CCC[C@H]1c1nc(-c2cnc(-c3ccc(-c4cnc([C@@H]5CCCN5C(=O)[C@@H](NC(=O)OC)[C@@H](C)OC)[nH]4)c(F)c3)nc2)c[nH]1)[C@@H](C)OC", "note": "[Example D70, methyl ((1S,2R)-1-(((2S)-2-(5-(2-fluoro-4-(5-(2-((2S)-1-(N-(methoxy-carbonyl)-O-methyl-L-threonyl)-2-pyrroli-dinyl)-1H-imida-zol-5-yl)-2-pyrimidi-nyl)phenyl)-1H-imida-zol-2-yl)-1-pyrroli-dinyl)carbo-nyl)-2-methoxy-propyl)carba-mate]", "values": [{"measurement": "EC50", "setting": "Hepatitis C virus", "value": "0.01 to 0.999", "unit": "nM"}]}, {"smiles": "COC(=O)N[C@@H](C(=O)N1CCC[C@H]1c1ncc(-c2ccc(-c3ccc(-c4cnc([C@@H]5CCCN5C(=O)[C@@H](c5ccccc5)N(C)C)[nH]4)cn3)cc2)[nH]1)c1ccccc1", "note": "[Example 140, methyl((1R)-2-((2S)-2-(5-(4-(5-(2-((2S)-1-((2R)-2-(dimethylamino)-2-phenylacetyl)-2-pyrrolidinyl)-1H-imidazol-5-yl)-2-pyridinyl)phenyl)-1H-imidazol-2-yl)-1-pyrrolidinyl)-2-oxo-1-phenylethyl)carbamate]", "values": [{"measurement": "EC50", "setting": "Hepatitis C virus", "value": "0.01 to 0.999", "unit": "nM"}]}, {"smiles": "COC(=O)N[C@H](C(=O)N1CCC[C@H]1c1ncc(-c2cnc(-c3ccc(-c4cnc([C@@H]5CCCN5C(=O)[C@@H](NC(=O)OC)C(C)C)[nH]4)c(F)c3)nc2)[nH]1)C(C)C", "note": "[Example D68, methyl ((1S)-1-(((2S)-2-(5-(2-fluoro-4-(5-(2-((2S)-1-((2S)-2-((methoxy-carbonyl)a-mino)-3-methyl-butanoyl)-2-pyrroli-dinyl)-1H-imida-zol-5-yl)-2-pyrimi-dinyl)phenyl)-1H-imida-zol-2-yl)-1-pyrroli-dinyl)carbo-nyl)-2-methylpro-pyl)carbamate]", "values": [{"measurement": "EC50", "value": "0.01 to 0.999", "unit": "nM"}]}]}
